# Experimental data published in US20210322396A1, “COMPOSITIONS WITH SYNERGISTIC PERMEATION ENHANCERS FOR DRUG DELIVERY” (Children's Medical Center Corporation, priority 2018, published 2021).
# Several values for one entry are separate records, joined by “and”; a condition that tells them apart may be missing. Identical values can stand only once. Counter-ions that a name gives are not always drawn. Like-named read-outs stand apart in the source and are kept apart here.
# Columns and labels:
# [1] = Concentration-response curve fitting and isobolographic analysis of CPEs on VCIP48; assay type: in vitro ADME, chinchilla
# [2] = tested on: H. influenza; conditions: cited from earlier work
# [3] = tested on: S. pneumoniae; conditions: cited from earlier work
# [4] = molecular target: sodium current; conditions: read-out: KI, inhibition of sodium current, cited from earlier work
# [5] = tested on: action potentials; conditions: read-out: median inhibitory concentration, amplitudes of action potentials, cited from earlier work
# [6] = physchem; conditions: water
# [7] = three-parameter hyperbolic fit of CPE concentration-VCIP48 curve
structure (smiles),measurement,setting,value
"C=C(C)[C@H]1CC=C(C)CC1 [LIM, limonene]",CPE concentration at which the permeation enhancement effect plateaued,[1],around 4%
same,"Emax (maximal VCIP48), derived from Equation (1)",[1],0.41 mg
same,concentration required to achieve VCIP48=0.22 mg (equivalent dose),[1],~1.8%
same,concentration required to achieve a VCIP48 of 0.4 mg (equivalent dose),[1],~4%
same,p (Hill coefficient),[1],5.33
"CCCCN1CCCCC1C(=O)Nc1c(C)cccc1C (stereo not drawn) [BUP-fb, bupivacaine free base]",solubility limit,in pure LIM,~10%
O=C(O)c1cn(C2CC2)c2cc(N3CCNCC3)c(F)cc2c1=O [ciprofloxacin],minimum inhibitory concentration,[2],about 4 μg/mL
same,minimum inhibitory concentration,[3],about 4 μg/mL
CCCCN1CCCCC1C(=O)Nc1c(C)cccc1C (stereo not drawn) [bupivacaine],Ki,[4]; in vitro,25 µM
same,IC50,[5]; in vitro,180 µM
"CCCCCCCCCCCCOS(=O)(=O)[O-].[Na+] [SDS, Sodium dodecyl sulfate]","Emax (peak VCIP48), derived experimentally","[1]; experimentally determined peak effect, sulfate",0.4 mg and 0.40 ^b mg
same,concentration required to achieve VCIP48=0.24 mg (equivalent dose),[1]; single CPE in CPPB,10%
same,p (Hill coefficient),[1]; [7],0.82 ^
same,"Emax (maximal VCIP48), derived from Equation (1)","[1]; three-parameter hyperbolic fit of CPE concentration-VCIP48 curve, sulfate",0.65 mg and 0.65 ^a mg
"CCCCN1CCCCC1C(=O)Nc1c(C)cccc1C (stereo not drawn) [BUP, bupivacaine hydrochloride]",solubility,[6],≥ 20 mg/mL
same,soluble concentration,"in 12%[P407-PBP] solution, weight by volume",up to 4%
same,effect of pH on solubility in water,pH of the formulation tuned in the range of 3 to 9,not affected
same,Emax relative to that of LIM,[1],9.76%
same,Emax relative to that of SDS,[1],6.15%
same,CPE concentration at which the permeation enhancement effect plateaued,"[1]; Cip permeation, CPPB",~1%
same,concentration required to achieve VCIP48=0.22 mg (equivalent dose),[1]; single CPE in CPPB,infinite
same,concentration required to achieve VCIP48=0.24 mg (equivalent dose),[1]; single CPE in CPPB,infinite
same,concentration required to achieve a VCIP48 of 0.4 mg (equivalent dose),[1]; single CPE in CPPB,infinite
same,"Emax (maximal VCIP48), derived from Equation (1)",[1]; [7],0.04 mg
same,p (Hill coefficient),[1]; [7],2.75
"NC1=N[C@H](O)[C@H]2[C@H]3O[C@]4(O)O[C@@H]([C@@H](O)[C@@]2(N1)[C@@H]4O)[C@]3(O)CO [TTX, Tetrodotoxin]",Ki,[4],0.001 to 0.002 µM
same,IC50,[5],0.005 to 0.006 µM
